Counter-ions that a name gives are not always drawn.
Legend:
[1] = Stability in alkaline solution; format: physicochemical
[2] = Solubility of methylphenidate hydrochloride in aqueous media / Ph. Eur. buffer solutions; format: physicochemical

SMILES: COC(=O)C(c1ccccc1)C1CCCCN1 (stereo not drawn) [methylphenidate hydrochloride]
- stability in alkaline solution [1]: hydrolysis occurs
- solubility of the maximum daily dose of 60 mg in buffer solutions of the European Pharmacopoeia ([2]; 60 mg in 250 ml hydrochloric acid pH 1.2, or 250 ml potassium dihydrogen phosphate buffer pH 4.6 or 6.8): dissolves easily
- water solubility ([2]; aqueous media): extremely water soluble

Reference: US8580301B2, “Psychostimulant containing pharmaceutical composition” (PEJO Iserlohn Heilmittel und Diaet GmbH & Co. KG, priority 2004, dated 2013)
